The text below walks through data of ChEMBL document CHEMBL1208745, “6-Phenyl-1H-imidazo[4,5-c]pyridine-4-carbonitrile as cathepsin S inhibitors” (Bioorg Med Chem Lett, 2010).

A word on the IC50: it is the point on the concentration scale where inhibition reaches its midpoint.

SMILES strings stand for the structures. Calls of active or inactive are those of the source. No cut-off for these calls is given here.

Assay [1] addresses Procathepsin L (Homo sapiens) (UniProt P07711). The assay can be described thus: Inhibition of human cathepsin L by fluorescence assay.
The target of assay [2] is T1, Cathepsin S (Homo sapiens, UniProt P25774). The assay can be described thus: Inhibition of human cathepsin S by fluorescence assay.
Assay [3] deals with Cathepsin B (Homo sapiens) (UniProt P07858). The assay is described as follows: Inhibition of human cathepsin B by fluorescence assay.
Assay [4] has as its target T1, Cathepsin S. The assay is described as follows: Inhibition of cathepsin S-mediated proteolytic cleavage of MHC2 associated invariant chain in human JY cells assessed as accumulation of lip10 by Western blot analysis. The class given is cell-based. (Immunoblotting shows a protein as a band on a membrane.)
In assay [5] the target is T2, Cathepsin K (Homo sapiens, UniProt P43235).
T2 sequence (P43235 whole entry): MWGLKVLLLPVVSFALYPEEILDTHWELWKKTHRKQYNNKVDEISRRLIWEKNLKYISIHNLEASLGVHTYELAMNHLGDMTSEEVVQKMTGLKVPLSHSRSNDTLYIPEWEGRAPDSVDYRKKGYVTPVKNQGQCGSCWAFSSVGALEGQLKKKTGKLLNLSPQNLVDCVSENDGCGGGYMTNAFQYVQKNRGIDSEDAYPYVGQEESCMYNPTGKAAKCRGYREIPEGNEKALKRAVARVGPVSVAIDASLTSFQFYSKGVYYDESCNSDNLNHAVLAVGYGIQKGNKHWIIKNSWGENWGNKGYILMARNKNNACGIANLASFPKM
The assay can be described thus: Inhibition of human cathepsin K by fluorescence assay.

T1 sequence (P25774 whole entry): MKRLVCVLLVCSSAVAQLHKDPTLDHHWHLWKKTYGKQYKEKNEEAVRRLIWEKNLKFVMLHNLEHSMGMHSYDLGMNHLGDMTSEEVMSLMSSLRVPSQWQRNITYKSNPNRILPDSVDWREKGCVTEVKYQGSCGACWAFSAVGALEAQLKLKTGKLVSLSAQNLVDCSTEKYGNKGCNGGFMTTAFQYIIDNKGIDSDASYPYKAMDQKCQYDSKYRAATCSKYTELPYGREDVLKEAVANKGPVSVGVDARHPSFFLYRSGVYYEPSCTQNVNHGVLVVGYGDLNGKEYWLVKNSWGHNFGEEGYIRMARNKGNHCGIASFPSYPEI
Chain of Procathepsin L (Homo sapiens) (P07711 114-333 limits assumed): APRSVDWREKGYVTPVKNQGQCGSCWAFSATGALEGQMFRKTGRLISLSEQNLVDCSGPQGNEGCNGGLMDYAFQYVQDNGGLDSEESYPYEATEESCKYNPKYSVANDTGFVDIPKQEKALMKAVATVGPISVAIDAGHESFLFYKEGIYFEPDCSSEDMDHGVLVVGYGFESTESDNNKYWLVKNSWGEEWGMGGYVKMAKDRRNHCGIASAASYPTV

For the compound `Cn1cnc2c(C#N)nc(-c3ccc(OCCC4CCNCC4)c(C(F)(F)F)c3)cc21`, the inhibition entry in assay [1] and in assay [3] was “inactive” throughout. Besides, the values for the half-maximal inhibitory concentration (IC50) in assay [2], in assay [4] and in assay [5] were 8.3 nM, 9 nM and 178 nM, respectively.
Regarding `N#Cc1nc(-c2ccc(OCc3ccccc3)c(C(F)(F)F)c2)cc2[nH]cnc12`, the inhibition entry in assay [1] and in assay [3] was “inactive” each time. For the same compound, the IC50 in assay [2] is 676 nM; in assay [5], greater than 10000 nM.
As to `CCOc1ccc(-c2cc3c(ncn3CCN3CCOCC3)c(C#N)n2)cc1C(F)(F)F`, the 50% inhibitory concentration (IC50) turned out to be 37 nM in assay [2], 10000 nM in assay [4] and 1660 nM in assay [5].
With `CN1CCN(CCCOc2ccc(-c3cc4c(ncn4C)c(C#N)n3)cc2C(F)(F)F)CC1`, the inhibition entry in assay [1] and in assay [3] was “inactive” throughout. In addition, the IC50 in assay [4] stood at 106 nM; in assay [5] it was 468 nM.
As to `N#Cc1nc(-c2cccc(C(F)(F)F)c2)cc2nc[nH]c12`, the IC50 in assay [2] stood at 1050 nM; in assay [5] it was 2000 nM.
For `CCOc1ccc(-c2cc3c(ncn3CCCN3CCOCC3)c(C#N)n2)cc1C(F)(F)F` the same measures were 35 nM and 513 nM.
Take `CC(=O)Nc1ccc(-c2cc3[nH]cnc3c(C#N)n2)cc1C(F)(F)F`: the inhibition result in assay [1] and in assay [3] was “inactive” each time. The IC50 in assay [2] is 3240 nM; in assay [5], greater than 10000 nM.
As for `Cn1cnc2c(C#N)nc(-c3ccc(OCCN4CCCC4=O)c(C(F)(F)F)c3)cc21`, the inhibition entry in assay [1] and in assay [3] was “inactive” throughout. For the same compound, the IC50 is 7.8 nM in assay [2], 1420 nM in assay [4] and 2510 nM in assay [5].
As for `CCOc1ccc(-c2cc3[nH]cnc3c(C#N)n2)cc1C(F)(F)F`, the inhibition entry in assay [1] and in assay [3] was “inactive” each time. Moreover, the values for the IC50 in assay [2] and in assay [5] were 25 nM and 8310 nM, respectively.
Regarding `CCCOc1ccc(-c2cc3[nH]cnc3c(C#N)n2)cc1C(F)(F)F`, the inhibition entry in assay [1] and in assay [3] was “inactive” throughout.
For `Cn1cnc2c(C#N)nc(-c3ccc(OCc4ccncc4)c(C(F)(F)F)c3)cc21`, the inhibition result in assay [1] and in assay [3] was “inactive” throughout. Moreover, the IC50 was 10 nM in assay [2] and greater than 10000 nM in assay [5].
For the compound `CCCOc1ccc(-c2cc3nc[nH]c3c(C#N)n2)cc1C(F)(F)F`, the concentration for half-maximal inhibition (IC50) in assay [2] stood at 200 nM; in assay [5], 7760 nM.
Turning to `N#Cc1nc(-c2ccc(OCCCO)c(C(F)(F)F)c2)cc2[nH]cnc12`, the inhibition result in assay [1] and in assay [3] was “inactive” throughout. The IC50 in assay [2] stood at 63 nM; in assay [5], 2690 nM.
In the case of `CCNc1ccc(-c2cc3[nH]cnc3c(C#N)n2)cc1C(F)(F)F`, the inhibition entry in assay [1] and in assay [3] was “inactive” each time. The half-inhibitory concentration (IC50) was 105 nM in assay [2] and greater than 10000 nM in assay [5].
With `Cn1cnc2c(C#N)nc(-c3ccc(CCCO)c(C(F)(F)F)c3)cc21`, the inhibition entry in assay [1] and in assay [3] was “inactive” in each case. Besides, the results for the IC50 in assay [2] and in assay [5] were 24 nM and 1070 nM, respectively.
Consider `Cn1cnc2c(C#N)nc(-c3ccc(OC4CCNCC4)c(C(F)(F)F)c3)cc21`, for which the inhibition result in assay [1] and in assay [3] was “inactive” each time. The IC50 in assay [2] is 316 nM; in assay [5] it was 891 nM.
Turning to `Cn1ccc2c(C#N)nc(-c3ccc(OCCN4CCCC4=O)c(C(F)(F)F)c3)cc21`, the IC50 is 661 nM in assay [2] and greater than 10000 nM in assay [5].
For `CCOc1ccc(-c2cc3c(ncn3CCN(C)C)c(C#N)n2)cc1C(F)(F)F`, the half-inhibitory concentration (IC50) in assay [2] was 32 nM; in assay [4] it was 854 nM; in assay [5], 447 nM.
In the case of `COc1ccc(-c2cc3[nH]cnc3c(C#N)n2)cc1C(F)(F)F`, the inhibition entry in assay [1] and in assay [3] was “inactive” throughout. Also, the IC50 worked out at 339 nM in assay [2] and 8510 nM in assay [5].
As to `Cn1cnc2c(C#N)nc(-c3ccc(OCc4cccnc4)c(C(F)(F)F)c3)cc21`, the inhibition entry in assay [1] and in assay [3] was “inactive” in each case. In addition, the 50% inhibitory concentration (IC50) in assay [2] was 12.6 nM; in assay [5], greater than 10000 nM.
As for `CCOc1ccc(-c2cc3c(ncn3CCCN(C)C)c(C#N)n2)cc1C(F)(F)F`, the IC50 in assay [2] amounted to 27 nM; in assay [4] it was 260 nM; in assay [5] it was 270 nM.
On to `N#Cc1nc(-c2cccc(C(F)(F)F)c2)cc2[nH]cnc12`, for which the inhibition entry in assay [1] and in assay [3] was “inactive” in each case.
For the compound `Cn1cnc2c(C#N)nc(-c3ccc(CCO)c(C(F)(F)F)c3)cc21`, the inhibition result in assay [1] and in assay [3] was “inactive” in each case. The IC50 came out at 71 nM in assay [2] and 3160 nM in assay [5].
Turning to `Cc1cccc(CCOc2ccc(-c3cc4c(ncn4C)c(C#N)n3)cc2C(F)(F)F)n1`, the inhibition result in assay [1] and in assay [3] was “inactive” in each case. Besides, the IC50 in assay [2] is 11 nM; in assay [4], 267 nM; in assay [5], 2040 nM.
With `CN(C)CCOc1ccc(-c2cc3c(ncn3C)c(C#N)n2)cc1C(F)(F)F`, the inhibition result in assay [1] and in assay [3] was “inactive” in each case. Besides, the IC50 amounted to 209 nM in assay [2] and 5890 nM in assay [5].
For the compound `N#Cc1nc(-c2ccc(OCCO)c(C(F)(F)F)c2)cc2[nH]cnc12`, the inhibition result in assay [1] and in assay [3] was “inactive” throughout. Besides, the IC50 in assay [2] was 145 nM; in assay [5], 2820 nM.
As for `Cn1cnc2c(C#N)nc(-c3ccc(OCC4CCNCC4)c(C(F)(F)F)c3)cc21`, the inhibition entry in assay [1] and in assay [3] was “inactive” throughout. In addition, the IC50 in assay [2] is 14.1 nM; in assay [5] it was 240 nM.
Turning to `CCOc1ccc(-c2cc3c(ncn3C)c(C#N)n2)cc1C(F)(F)F`, the inhibition entry in assay [1] and in assay [3] was “inactive” in each case. The IC50 turned out to be 40 nM in assay [2] and 1260 nM in assay [5].
As for `Cn1cnc2c(C#N)nc(-c3ccc(OCCCN4CCCC4)c(C(F)(F)F)c3)cc21`, the inhibition entry in assay [1] and in assay [3] was “inactive” throughout. Also, the IC50 in assay [2] is 28 nM; in assay [4], 89 nM; in assay [5], 871 nM.
In the case of `CCOc1ccc(-c2cccc(C#N)n2)cc1C(F)(F)F`, the inhibition result in assay [1] and in assay [3] was “inactive” throughout.
Regarding `CCOc1ccc(-c2nc(C#N)c3nc[nH]c3n2)cc1C(F)(F)F`, the inhibition entry in assay [1] and in assay [3] was “inactive” in each case.
For the compound `Cn1cnc2c(C#N)nc(-c3ccc(OCCN4CCNC(=O)C4)c(C(F)(F)F)c3)cc21`, the inhibition entry in assay [1] and in assay [3] was “inactive” each time. Moreover, the IC50 in assay [2] is 7.8 nM; in assay [5], 1170 nM.
